Here are results for 13 compounds from PMC11513893, “Discovery of Oral Degraders of the ROS1 Fusion Protein with Potent Activity against Secondary Resistance Mutations” (Journal of Medicinal Chemistry, 2024).

For one experiment, the system named is ROS1. The experiment in a line: ROS1 degradation in Ba/F3 cells (WES immunoblotting). In kind it is cell-based. As to conditions: for DC50: concentration needed to reduce ROS1 protein by 50%, Ba/F3 cells; for Dmax (%) (ROS1): maximal degradation of ROS1 in Ba/F3 cells. The method, then:
Protein levels were analyzed using a WES instrument according to the WES User Guide from ProteinSimple in duplicate experiments. The samples were mixed with the fluorescent 5 master mix (ProteinSimple) and then heated at 95 °C for 5 min. Boiled samples, biotinylated protein ladder, antibody diluent, Streptavidin-HRP, primary antibodies, ProteinSimple horseradish peroxidase conjugated antirabbit or antimouse secondary antibodies, luminol-peroxide, and wash buffer were loaded into the WES plate (Wes 12–230 kDa Prefilled Plates with Split Buffer, ProteinSimple). The plates and capillary cartridges were loaded into the WES instrument, and protein separation, antibody incubation, and imaging were performed according to manufacturer’s instructions. Compass software (ProteinSimple) was used to acquire the data and to generate the virtual blot image reconstruction and chemiluminescence signal intensity electropherograms. […] Protein levels are expressed as the AUC of the peak chemiluminescence intensity. Antibodies against phospho-ROS1(Tyr2274/2334) (E8F5J), ROS1 (D4D6(R)) were obtained from Cell Signaling Technology.
For orientation: Immunoblotting shows a protein as a band on a membrane.

Experiment [1] relates to Ba/F3 CD74-ROS1 non mutant. The experiment in a line: Antiproliferation assay (Alamar Blue, 72 h). Type of experiment: cell-based, mouse. As to conditions: Mus musculus, BaF3, 72 h, Ba/F3 cells, cell growth inhibition. The source says:
(§1) To assess targeted degradation of ROS1 fusion proteins, we first established a mouse pro-B cell line Ba/F3 as a model expressing the CD74-ROS1 oncogene or CD74-ROS1 with clinically observed secondary/tertiary mutations. The Ba/F3 cell line is dependent on interleukin-3 for survival and proliferation. Upon transduction of oncogenic ROS1, Ba/F3 cells become independent of interleukin-3 but dependent on the transduced driver gene.
(§2) Ba/F3 immortalized murine bone marrow–derived pro-B cells were obtained from Creative Biogene (Shirley, NY) and cultured in RPMI supplemented with 10% FBS and IL3 (0.5 ng/mL). Ba/F3 cells expressing ROS1 variants were maintained in RPMI supplemented with 10% FBS and puromycin (0.7 mg/mL). […] Each compound was dissolved in DMSO and serially diluted in RPMI for cell culture experiments.
(§3) To assess the 72 h effect of drug treatment on cell proliferation, 2000 to 3000 cells were plated in replicates of three in 96-well plates. The plates were placed in an incubator at 37 °C, 5% CO2 for 72 h. Following drug treatments, the cells were incubated with the Alamar Blue Assay reagent (BioRad), 5 μL each well for 4 h at 37 °C and 5% CO2. Luminescence was measured on a multiplate reader and analyzed. […] IC50 values were determined using a nonlinear regression model with a sigmoidal dose response in GraphPad. The data were collected based on triplicate experiments, and presented as mean ± SD.
(§4) The resulting virus was used to infect Ba/F3 cells. After retroviral infection, Ba/F3 cells were selected by incubation with puromycin (0.7 mg/mL) for 2 weeks. For Ba/F3 cells infected by the CD74–ROS1 variants, IL3 was withdrawn from the culture medium at least 2 weeks before the experiments.
In general terms: Resazurin is reduced to fluorescent resorufin, in cell work by metabolically active cells.

For the next experiment, the system named is Ba/F3 ROS1-G2032R. Kind of experiment: Antiproliferation assay. In kind it is cell-based, mouse. As to conditions: Mus musculus, BaF3; Ba/F3 cells, cell growth inhibition, 72 h.
Excerpt: as §1, §2, §3, §4

As usually defined, the DC50 is the concentration giving 50% degradation. Usually IC50 stands for the midpoint of a concentration-inhibition curve. Low values mean higher potency, high ones lower potency. As for `Cc1cc(Nc2ncc(Cl)c(Nc3ccccc3S(=O)(=O)C(C)C)n2)c(OC(C)C)cc1C1CCN(C2CCN(CC3CN(c4ccc5c(c4)C(=O)N(C4CCC(=O)NC4=O)C5=O)C3)CC2)CC1` (stereo not shown) [8n, 5-(3-((4-(4-((5-Chloro-4-((2-(isopropylsulfonyl)phenyl)amino)pyrimidin-2-yl)amino)-5-isopropoxy-2-methylphenyl)-[1,4′-bipiperidin]-1′-yl)methyl)azetidin-1-yl)-2-(2,6-dioxopiperidin-3-yl)isoindoline-1,3-dione], in the experiment on ROS1, half-maximal degradation (DC50) was put at 586 nM and the “Dmax (%) (ROS1)” value amounted to 63%. Besides, the midpoint of inhibition in experiment [1], the IC50, lay at 713 ± 84 nM. In the experiment with Ba/F3 ROS1-G2032R, this compound gave an IC50 of 1150 ± 466 nM.

`Cc1cc(Nc2ncc(Cl)c(Nc3ccccc3S(=O)(=O)C(C)C)n2)c(OC(C)C)cc1C1CCN(C2CN(C3CN(c4ccc5c(c4)C(=O)N(C4CCC(=O)NC4=O)C5=O)C3)C2)CC1` (stereo not shown) [8o, 5-(3-(4-(4-((5-Chloro-4-((2-(isopropylsulfonyl)phenyl)amino)pyrimidin-2-yl)amino)-5-isopropoxy-2-methylphenyl)piperidin-1-yl)-[1,3′-biazetidin]-1′-yl)-2-(2,6-dioxopiperidin-3-yl)isoindoline-1,3-dione]: in the experiment with ROS1, it took 122 nM to reach half-maximal degradation (DC50) and the “Dmax (%) (ROS1)” value came out at 65%. For the same compound, in experiment [1], the IC50 is 116 ± 21 nM. For the same compound, the IC50 with Ba/F3 ROS1-G2032R was more than 10000 nM.

In the experiment with ROS1, `Cc1cc(Nc2ncc(Cl)c(Nc3ccccc3S(=O)(=O)C(C)C)n2)c(OC(C)C)cc1C1CCN(C2CN(CC3CN(c4ccc5c(c4)C(=O)N(C4CCC(=O)NC4=O)C5=O)C3)C2)CC1` (stereo not shown) [8q, 5-(3-((3-(4-(4-((5-Chloro-4-((2-(isopropylsulfonyl)phenyl)amino)pyrimidin-2-yl)amino)-5-isopropoxy-2-methylphenyl)piperidin-1-yl)azetidin-1-yl)methyl)azetidin-1-yl)-2-(2,6-dioxopiperidin-3-yl)isoindoline-1,3-dione] showed a DC50 of 57 nM. Besides, in the experiment with ROS1, the “Dmax (%) (ROS1)” value came out at 85%. The results for the IC50 (in experiment [1]; in the experiment with Ba/F3 ROS1-G2032R) were 66 ± 6 nM and 6120 ± 4070 nM, respectively.

In the case of `Cc1cc(Nc2ncc(Cl)c(Nc3ccccc3S(=O)(=O)C(C)C)n2)c(OC(C)C)cc1C1CCN(C2CN(CC3CCN(c4ccc5c(c4)C(=O)N(C4CCC(=O)NC4=O)C5=O)CC3)C2)CC1` (stereo not shown) [8r, 5-(4-((3-(4-(4-((5-Chloro-4-((2-(isopropylsulfonyl)phenyl)amino)pyrimidin-2-yl)amino)-5-isopropoxy-2-methylphenyl)piperidin-1-yl)azetidin-1-yl)methyl)piperidin-1-yl)-2-(2,6-dioxopiperidin-3-yl)isoindoline-1,3-dione], in the experiment on ROS1, the DC50 was 77 nM and the “Dmax (%) (ROS1)” value is reported as 91%. In addition, the IC50 in experiment [1] came to 72 ± 3 nM. Further, the half-maximal inhibitory concentration (IC50) in the experiment on Ba/F3 ROS1-G2032R is more than 10000 nM.

As for `Cc1cc(Nc2ncc(Cl)c(Nc3ccccc3S(=O)(=O)C(C)C)n2)c(OC(C)C)cc1C1CCN(C2CCN(C3CCN(c4ccc5c(c4)C(=O)N(C4CCC(=O)NC4=O)C5=O)CC3)CC2)CC1` (stereo not shown) [8s, 5-(4-(4-((5-Chloro-4-((2-(isopropylsulfonyl)phenyl)amino)pyrimidin-2-yl)amino)-5-isopropoxy-2-methylphenyl)-[1,4′:1′,4″-terpiperidin]-1″-yl)-2-(2,6-dioxopiperidin-3-yl)isoindoline-1,3-dione], half-maximal degradation with ROS1 (DC50) was put at 120 nM. Further, in the experiment with ROS1, the “Dmax (%) (ROS1)” value came out at 82%. Besides, the values for the IC50 (in experiment [1]; in the experiment on Ba/F3 ROS1-G2032R) were 106 ± 9 nM and more than 10000 nM, respectively.

On to `Cc1cc(Nc2ncc(Cl)c(Nc3ccccc3S(=O)(=O)C(C)C)n2)c(OC(C)C)cc1C1CCN(C2CCN(CC3CCN(c4ccc5c(c4)C(=O)N(C4CCC(=O)NC4=O)C5=O)CC3)CC2)CC1` (stereo not shown) [8t, 5-(4-((4-(4-((5-Chloro-4-((2-(isopropylsulfonyl)phenyl)amino)pyrimidin-2-yl)amino)-5-isopropoxy-2-methylphenyl)-[1,4′-bipiperidin]-1′-yl)methyl)piperidin-1-yl)-2-(2,6-dioxopiperidin-3-yl)isoindoline-1,3-dione], for which it took 155 nM to reach half-maximal degradation with ROS1 (DC50). Further, in the experiment with ROS1, the “Dmax (%) (ROS1)” value is listed as 81%. In addition, the IC50 in experiment [1] was 147 ± 28 nM; in the experiment on Ba/F3 ROS1-G2032R, more than 10000 nM.

Regarding `COc1cc(N2CCN(c3ccc4c(c3)C(=O)N(C3CCC(=O)NC3=O)C4=O)CC2)ccc1Nc1ncc(Cl)c(Nc2ccccc2P(C)(C)=O)n1` (stereo not shown) [9a, 5-(4-(4-((5-Chloro-4-((2-(dimethylphosphoryl)phenyl)amino)pyrimidin-2-yl)amino)-3-methoxyphenyl)piperazin-1-yl)-2-(2,6-dioxopiperidin-3-yl)isoindoline-1,3-dione], in the experiment with ROS1, the DC50 was 133 nM and the “Dmax (%) (ROS1)” value is 68%. In addition, 112 ± 17 nM corresponded to half-maximal inhibition in experiment [1] (IC50). Half-maximal inhibition in the experiment with Ba/F3 ROS1-G2032R (IC50) required 251 ± 125 nM.

Take `COc1cc(N2CCC(N3CCN(C4CN(c5ccc6c(c5)C(=O)N(C5CCC(=O)NC5=O)C6=O)C4)CC3)CC2)ccc1Nc1ncc(Cl)c(Nc2ccccc2P(C)(C)=O)n1` (stereo not shown) [9d, 5-(3-(4-(1-(4-((5-Chloro-4-((2-(dimethylphosphoryl)phenyl)amino)pyrimidin-2-yl)amino)-3-methoxyphenyl)piperidin-4-yl)piperazin-1-yl)azetidin-1-yl)-2-(2,6-dioxopiperidin-3-yl)isoindoline-1,3-dione]: in the experiment on ROS1, the DC50 amounted to 75 nM and the “Dmax (%) (ROS1)” value was 90%. In addition, the IC50 in experiment [1] was 61 ± 5 nM. The same compound yielded an IC50 in the experiment on Ba/F3 ROS1-G2032R of 491 ± 48 nM.

In turn, `COc1cc(C2CCN(C3CCN(CC4CCN(c5ccc6c(c5)C(=O)N(C5CCC(=O)NC5=O)C6=O)CC4)CC3)CC2)ccc1Nc1ncc(Cl)c(Nc2ccccc2P(C)(C)=O)n1` (stereo not shown) [9g, 5-(4-((4-(4-((5-Chloro-4-((2-(dimethylphosphoryl)phenyl)amino)pyrimidin-2-yl)amino)-3-methoxyphenyl)-[1,4′-bipiperidin]-1′-yl)methyl)piperidin-1-yl)-2-(2,6-dioxopiperidin-3-yl)isoindoline-1,3-dione] gave a DC50 in the experiment with ROS1 of 11 nM. Also, in the experiment with ROS1, the “Dmax (%) (ROS1)” value amounted to 88%. The IC50 in experiment [1] came to 7.1 ± 0.9 nM; in the experiment on Ba/F3 ROS1-G2032R, 221 ± 26 nM.

As for `COc1cc(N2CCN(C3CCN(CC4CCN(c5ccc6c(c5)C(=O)N(C5CCC(=O)NC5=O)C6=O)CC4)CC3)CC2)ccc1Nc1ncc(Cl)c(Nc2ccccc2P(C)(C)=O)n1` (stereo not shown) [9h, 5-(4-((4-(4-(4-((5-Chloro-4-((2-(dimethylphosphoryl)phenyl)amino)pyrimidin-2-yl)amino)-3-methoxyphenyl)piperazin-1-yl)piperidin-1-yl)methyl)piperidin-1-yl)-2-(2,6-dioxopiperidin-3-yl)isoindoline-1,3-dione], the DC50 with ROS1 was 34 nM. For the same compound, the “Dmax (%) (ROS1)” value in the experiment on ROS1 was 85%. In addition, the IC50 is 21 ± 8 nM in experiment [1] and 115 ± 12 nM in the experiment with Ba/F3 ROS1-G2032R.

Regarding `COc1cc(N2CCN(c3ccc4c(c3)CN(C3CCC(=O)NC3=O)C4=O)CC2)ccc1Nc1ncc(Cl)c(Nc2ccccc2P(C)(C)=O)n1` (stereo not shown) [9l, 3-(5-(4-(4-((5-Chloro-4-((2-(dimethylphosphoryl)phenyl)amino)pyrimidin-2-yl)amino)-3-methoxyphenyl)piperazin-1-yl)-1-oxoisoindolin-2-yl)piperidine-2,6-dione], in the experiment on ROS1, it took 8 nM to reach half-maximal degradation (DC50). Besides, the “Dmax (%) (ROS1)” value with ROS1 stood at 92%. The values for the IC50 (in experiment [1]; in the experiment on Ba/F3 ROS1-G2032R) were 6.6 ± 0.4 nM and 427 ± 32 nM, respectively.

In the case of `COc1cc(N2CCC(N3CCN(CC4CN(c5ccc6c(c5)CN(C5CCC(=O)NC5=O)C6=O)C4)CC3)CC2)ccc1Nc1ncc(Cl)c(Nc2ccccc2P(C)(C)=O)n1` (stereo not shown) [9p, 3-(5-(3-((4-(1-(4-((5-Chloro-4-((2-(dimethylphosphoryl)phenyl)amino)pyrimidin-2-yl)amino)-3-methoxyphenyl)piperidin-4-yl)piperazin-1-yl)methyl)azetidin-1-yl)-1-oxoisoindolin-2-yl)piperidine-2,6-dione], in the experiment with ROS1, the DC50 is 20 nM and the “Dmax (%) (ROS1)” value stood at 94%. This compound returned an IC50 in experiment [1] of 15.3 ± 4.5 nM. The IC50 in the experiment with Ba/F3 ROS1-G2032R turned out to be 158 ± 81 nM.

With `COc1cc(N2CCC(N3CCN(CC4CCN(c5ccc(NC6CCC(=O)NC6=O)cc5)CC4)CC3)CC2)ccc1Nc1ncc(Cl)c(Nc2ccccc2P(C)(C)=O)n1` (stereo not shown) [9q, 3-((4-(4-((4-(1-(4-((5-Chloro-4-((2-(dimethylphosphoryl)phenyl)amino)pyrimidin-2-yl)amino)-3-methoxyphenyl)piperidin-4-yl)piperazin-1-yl)methyl)piperidin-1-yl)phenyl)amino)piperidine-2,6-dione], in the experiment on ROS1, the DC50 was found to be 145 nM and the “Dmax (%) (ROS1)” value was determined as 33%. For the same compound, 102 ± 24 nM corresponded to half-maximal inhibition in experiment [1] (IC50). Besides, the IC50 in the experiment with Ba/F3 ROS1-G2032R is more than 10000 nM.
